Broadly, the Papp is a coefficient for how fast a substance crosses the barrier.

In ChEMBL document CHEMBL4371068, “Potent inhibitors of malarial P. Falciparum protein kinase G: Improving the cell activity of a series of imidazopyridines” (Bioorg Med Chem Lett, 2019) one finds Papp data, which are given here for eight compounds.

A short description of the data set: Apparent permeability of the compound in phosphate buffer saline at 50 to 200 uM after 5 hrs by PAMPA. In kind it is ADME. (PAMPA measures passive passage across an artificial lipid membrane.)

With `CN(C)Cc1ccc2c(c1)nc(-c1ccc(F)cc1)n2-c1ccnc(N)n1`, the apparent permeability (Papp) at 5 h, up to 200 µM was found to be 3.2 ×10⁻⁶ cm/s.

Consider `CN(C)Cc1ccc2c(-c3ccnc(N)n3)c(-c3ccc(F)cc3)nn2c1`, for which the Papp at 5 h, up to 200 µM stood at 18.5 ×10⁻⁶ cm/s. In the case of `CN(C)CCNc1ccc2nc(-c3ccc(F)cc3)c(-c3ccnc(N)n3)n2n1`, the Papp at 5 h, up to 200 µM came out at 1 ×10⁻⁶ cm/s.

Take `CN1CCC(n2cc(Nc3nccc(-c4c(-c5ccc(F)cc5)nc5ccccn45)n3)cn2)CC1`: the Papp at 5 h, up to 200 µM came to 12.4 ×10⁻⁶ cm/s.

With `Fc1ccc(-c2nc3ccccn3c2-c2ccnc(NC3CCOCC3)n2)cc1`, the apparent permeability coefficient (Papp) at 5 h, up to 200 µM is 14.5 ×10⁻⁶ cm/s. For `CN(C)Cc1ccn2c(-c3ccnc(N)n3)c(-c3ccc(F)cc3)nc2n1`, the Papp at 5 h, up to 200 µM came to 11.8 ×10⁻⁶ cm/s. Take `CN(C)Cc1cc2nc(-c3ccc(F)cc3)c(-c3ccnc(N)n3)n2cn1`: the apparent permeability (Papp) at 5 h, up to 200 µM amounted to 5.8 ×10⁻⁶ cm/s. The result for `CN(C)CCCNc1nccc(-c2c(-c3ccc(F)cc3)nc3ccccn23)n1` reads 8.2 ×10⁻⁶ cm/s.
